{"source": "paper PMC5218480", "about": "(PLoS ONE, 2017)", "system": "MV-4-11 cells", "experiment": "Gene expression microarray analysis (Affymetrix PrimeView) and GSEA", "type": "cell-based, human", "parameters": "RFU PODN (11730768_x_at) / Fold change /veh PODN (11730768_x_at) / RFU LINC00158 (11744669_a_at) / Fold change /veh LINC00158 (11744669_a_at) / RFU DUSP10 (11751237_a_at) / Fold change /veh DUSP10 (11751237_a_at) / RFU ID3 (11757404_x_at) / Fold change /veh ID3 (11757404_x_at) / RFU PLEKHG5 (11737974_s_at) / Fold change /veh PLEKHG5 (11737974_s_at) / RFU LRRC4B (11730491_at) / Fold change /veh LRRC4B (11730491_at) / RFU GIMAP4 (11747438_a_at) / Fold change /veh GIMAP4 (11747438_a_at) / RFU KRT8 (11758183_x_at) / Fold change /veh KRT8 (11758183_x_at) / RFU CNN1 (11734310_a_at) / Fold change /veh CNN1 (11734310_a_at) / RFU VPS37D (11726825_at) / Fold change /veh VPS37D (11726825_at) / RFU C10orf10 (11716522_x_at) / Fold change /veh C10orf10 (11716522_x_at) / RFU KIR2DL2 /// KIR2DL4 /// KIR2DL5A /// KIR2DL5B /// KIR2DS1 /// KIR2DS2 /// KIR2DS3 /// KIR2DS4 /// KIR3DL3 /// KIR3DL3 /// KIR3DS1 (11738374_at) / Fold change /veh KIR2DL2 /// KIR2DL4 /// KIR2DL5A /// KIR2DL5B /// KIR2DS1 /// KIR2DS2 /// KIR2DS3 /// KIR2DS4 /// KIR3DL3 /// KIR3DL3 /// KIR3DS1 (11738374_at) / RFU C1QL1 (11718748_at) / Fold change /veh C1QL1 (11718748_at) / RFU TMPRSS4 (11747572_a_at) / Fold change /veh TMPRSS4 (11747572_a_at) / RFU HAMP (11756126_x_at) / Fold change /veh HAMP (11756126_x_at) / RFU RNFT2 (11725882_a_at) / Fold change /veh RNFT2 (11725882_a_at) / RFU NR4A2 (11747474_a_at) / Fold change /veh NR4A2 (11747474_a_at) / RFU ABCC12 (11746883_a_at) / Fold change /veh ABCC12 (11746883_a_at) / RFU TMEM136 (11760407_x_at) / Fold change /veh TMEM136 (11760407_x_at) / RFU CLDN22 /// WWC2 (11732394_at) / Fold change /veh CLDN22 /// WWC2 (11732394_at) / RFU HLA-DPB1 (11760878_x_at) / Fold change /veh HLA-DPB1 (11760878_x_at) / RFU SPINT1 (11716480_a_at) / Fold change /veh SPINT1 (11716480_a_at) / RFU GAP43 (11754022_s_at) / Fold change /veh GAP43 (11754022_s_at) / RFU A4GNT (11735810_at) / Fold change /veh A4GNT (11735810_at) / RFU PRB3 (11715151_x_at) / Fold change /veh PRB3 (11715151_x_at) / RFU TUBB4B (11761932_at) / Fold change /veh TUBB4B (11761932_at) / RFU CAPN14 (11732068_a_at) / Fold change /veh CAPN14 (11732068_a_at) / RFU TMCC2 (11721928_a_at) / Fold change /veh TMCC2 (11721928_a_at) / RFU IRGQ (11745062_a_at) / Fold change /veh IRGQ (11745062_a_at) / RFU FAM174B (11720279_a_at) / Fold change /veh FAM174B (11720279_a_at) / RFU TMPRSS4 (11748680_a_at) / Fold change /veh TMPRSS4 (11748680_a_at) / RFU FAM212B (11763350_a_at) / Fold change /veh FAM212B (11763350_a_at) / RFU PLEKHG5 (11743358_a_at) / Fold change /veh PLEKHG5 (11743358_a_at) / RFU ZSCAN30 (11745921_a_at) / Fold change /veh ZSCAN30 (11745921_a_at) / RFU CMKLR1 (11741424_a_at) / Fold change /veh CMKLR1 (11741424_a_at) / RFU LOC101060620 /// MAPK8IP1 (11723275_at) / Fold change /veh LOC101060620 /// MAPK8IP1 (11723275_at) / RFU SPTSSB (11747773_x_at) / Fold change /veh SPTSSB (11747773_x_at) / RFU PRSS12 (11739890_at) / Fold change /veh PRSS12 (11739890_at) / RFU BIN1 (11741810_x_at) / Fold change /veh BIN1 (11741810_x_at) / RFU WNT11 (11732464_a_at) / Fold change /veh WNT11 (11732464_a_at) / RFU C10orf10 (11716521_a_at) / Fold change /veh C10orf10 (11716521_a_at) / RFU C5orf56 (11738089_at) / Fold change /veh C5orf56 (11738089_at) / RFU CYB561 (11721691_x_at) / Fold change /veh CYB561 (11721691_x_at) / RFU ANKRD19P (11752326_a_at) / Fold change /veh ANKRD19P (11752326_a_at) / RFU OR2T12 /// OR2T33 /// OR2T8 (11738714_s_at) / Fold change /veh OR2T12 /// OR2T33 /// OR2T8 (11738714_s_at) / RFU VCAN (11748164_a_at) / Fold change /veh VCAN (11748164_a_at) / RFU JSRP1 (11732532_at) / Fold change /veh JSRP1 (11732532_at) / RFU KRTAP10-11 (11738290_x_at) / Fold change /veh KRTAP10-11 (11738290_x_at) / RFU MYO3A (11730013_a_at) / Fold change /veh MYO3A (11730013_a_at) / RFU EBF3 (11725865_a_at) / Fold change /veh EBF3 (11725865_a_at) / RFU CAMK2N1 (11719241_x_at) / Fold change /veh CAMK2N1 (11719241_x_at) / RFU C5orf56 (11738088_a_at) / Fold change /veh C5orf56 (11738088_a_at) / RFU OLFML3 (11715873_a_at) / Fold change /veh OLFML3 (11715873_a_at) / RFU LOC100653217 /// NTM (11731650_a_at) / Fold change /veh LOC100653217 /// NTM (11731650_a_at) / RFU MAPK11 (11762145_a_at) / Fold change /veh MAPK11 (11762145_a_at) / RFU FIZ1 (11724087_x_at) / Fold change /veh FIZ1 (11724087_x_at) / RFU OASL (11726364_x_at) / Fold change /veh OASL (11726364_x_at) / RFU SOX15 (11748057_x_at) / Fold change /veh SOX15 (11748057_x_at) / RFU CD79A (11719716_a_at) / Fold change /veh CD79A (11719716_a_at) / RFU HIST1H1D (11736915_at) / Fold change /veh HIST1H1D (11736915_at) / RFU CASKIN2 (11723855_a_at) / Fold change /veh CASKIN2 (11723855_a_at) / RFU LOC730098 (11760151_x_at) / Fold change /veh LOC730098 (11760151_x_at) / RFU OR4N2 (11742367_at) / Fold change /veh OR4N2 (11742367_at) / RFU PRRT2 (11749266_a_at) / Fold change /veh PRRT2 (11749266_a_at) / RFU SNX32 (11753110_a_at) / Fold change /veh SNX32 (11753110_a_at) / RFU CDHR5 (11726645_a_at) / Fold change /veh CDHR5 (11726645_a_at) / RFU RCAN1 (11760418_a_at) / Fold change /veh RCAN1 (11760418_a_at) / RFU FAM167A (11723789_a_at) / Fold change /veh FAM167A (11723789_a_at) / RFU FAM26E (11764081_at) / Fold change /veh FAM26E (11764081_at) / RFU ISYNA1 (11749810_s_at) / Fold change /veh ISYNA1 (11749810_s_at) / RFU ACY1 (11761880_at) / Fold change /veh ACY1 (11761880_at) / RFU 11764098_at / Fold change /veh 11764098_at / RFU SAMD14 (11745864_x_at) / Fold change /veh SAMD14 (11745864_x_at) / RFU NPB (11741838_a_at) / Fold change /veh NPB (11741838_a_at) / RFU TMPRSS6 (11731388_a_at) / Fold change /veh TMPRSS6 (11731388_a_at) / RFU KRTAP10-2 (11738614_at) / Fold change /veh KRTAP10-2 (11738614_at) / RFU ARHGAP8 /// PRR5-ARHGAP8 (11727945_x_at) / Fold change /veh ARHGAP8 /// PRR5-ARHGAP8 (11727945_x_at) / RFU KRTAP5-7 /// NADSYN1 (11734609_at) / Fold change /veh KRTAP5-7 /// NADSYN1 (11734609_at) / RFU RASL12 (11751679_a_at) / Fold change /veh RASL12 (11751679_a_at) / RFU CDKN2B (11736163_a_at) / Fold change /veh CDKN2B (11736163_a_at) / RFU PRF1 (11729649_at) / Fold change /veh PRF1 (11729649_at) / RFU, ZNF638 /// ZNF638-IT1 / Fold change vs veh, ZNF638 /// ZNF638-IT1 / RFU, PANK3 / Fold change vs veh, PANK3 / RFU, SH3YL1 / Fold change vs veh, SH3YL1 / RFU, ZEB2 / Fold change vs veh, ZEB2 / RFU, NRIP1 / Fold change vs veh, NRIP1 / RFU, PTTG1IP / Fold change vs veh, PTTG1IP / RFU, CAPN2 / Fold change vs veh, CAPN2 / RFU, MED14 / Fold change vs veh, MED14 / RFU, SNORA58 / Fold change vs veh, SNORA58 / RFU, C1orf63 / Fold change vs veh, C1orf63 / RFU, LRRFIP1 / Fold change vs veh, LRRFIP1 / RFU, NDUFAF7 / Fold change vs veh, NDUFAF7 / RFU, SLC12A2 / Fold change vs veh, SLC12A2 / RFU, IBTK / Fold change vs veh, IBTK / RFU, ESF1 / Fold change vs veh, ESF1 / Fold change vs veh, TMEM50B / RFU, TAOK1 / Fold change vs veh, TAOK1 / RFU, ACBD3 / Fold change vs veh, ACBD3 / RFU, TMA16 / Fold change vs veh, TMA16 / RFU, RWDD3 / Fold change vs veh, RWDD3 / RFU, BCAT1 / Fold change vs veh, BCAT1 / RFU, EDEM3 / Fold change vs veh, EDEM3 / RFU, TMEM33 / Fold change vs veh, TMEM33 / RFU, WDR75 / Fold change vs veh, WDR75 / RFU, AHCTF1 / Fold change vs veh, AHCTF1 / RFU, TFRC / Fold change vs veh, TFRC / RFU, ZDHHC17 / Fold change vs veh, ZDHHC17 / RFU, NOM1 / Fold change vs veh, NOM1 / RFU, ARL8B / Fold change vs veh, ARL8B / RFU, ZBTB11 / Fold change vs veh, ZBTB11 / RFU, TAMM41 / Fold change vs veh, TAMM41 / RFU, KIAA1704 /// LOC100996395 / Fold change vs veh, KIAA1704 /// LOC100996395 / RFU, ING1 / Fold change vs veh, ING1 / RFU, TRMT61B / Fold change vs veh, TRMT61B / RFU, FUBP3 / Fold change vs veh, FUBP3 / RFU, TP53 / Fold change vs veh, TP53 / RFU, TNKS2 / Fold change vs veh, TNKS2 / RFU, ZFP14 / Fold change vs veh, ZFP14 / RFU, ACTR2 / Fold change vs veh, ACTR2 / RFU, PPP3R1 / Fold change vs veh, PPP3R1 / RFU, PIK3R1 / Fold change vs veh, PIK3R1 / RFU, HNRNPA1 / Fold change vs veh, HNRNPA1 / RFU, RNF170 / Fold change vs veh, RNF170 / RFU, ZNF28 / Fold change vs veh, ZNF28 / RFU, RNGTT / Fold change vs veh, RNGTT / RFU, OGT / Fold change vs veh, OGT / RFU, BRD1 / Fold change vs veh, BRD1 / RFU, MARS / Fold change vs veh, MARS / RFU, ZNF655 / Fold change vs veh, ZNF655 / RFU, FAHD1 / Fold change vs veh, FAHD1 / RFU, BDP1 / Fold change vs veh, BDP1 / RFU, LRRCC1 / Fold change vs veh, LRRCC1 / RFU, ARID1A / Fold change vs veh, ARID1A / RFU, ZNF146 / Fold change vs veh, ZNF146 / RFU, ZNF330 / Fold change vs veh, ZNF330 / RFU, GPN3 / Fold change vs veh, GPN3 / RFU, C9orf123 / Fold change vs veh, C9orf123 / RFU, N4BP2L2 / Fold change vs veh, N4BP2L2 / RFU, ARFIP1 / Fold change vs veh, ARFIP1 / RFU, FAM179B / Fold change vs veh, FAM179B / RFU, BCL10 / Fold change vs veh, BCL10 / RFU, UHRF1BP1L / Fold change vs veh, UHRF1BP1L / RFU, BET1 / Fold change vs veh, BET1 / RFU, CNOT2 / Fold change vs veh, CNOT2 / RFU, ZNF268 / Fold change vs veh, ZNF268 / Fold change vs veh, ZNF507 / RFU, DGCR2 / Fold change vs veh, DGCR2 / RFU, WDSUB1 / Fold change vs veh, WDSUB1 / Fold change vs veh, HSP90B1 /// MIR3652 / RFU, ADSS / Fold change vs veh, ADSS / RFU, GK / Fold change vs veh, GK / RFU, ZNF148 / Fold change vs veh, ZNF148 / RFU, TAF9 / Fold change vs veh, TAF9 / RFU, SLC1A5 / Fold change vs veh, SLC1A5 / RFU, SLMO2 / Fold change vs veh, SLMO2 / RFU, ABCC4 / Fold change vs veh, ABCC4 / RFU, LOC101060439 /// RAP1B / Fold change vs veh, LOC101060439 /// RAP1B / RFU, RFX7 / Fold change vs veh, RFX7 / RFU, GTPBP10 / Fold change vs veh, GTPBP10 / RFU, CNEP1R1 / Fold change vs veh, CNEP1R1 / RFU, BIVM-ERCC5 /// ERCC5 / Fold change vs veh, BIVM-ERCC5 /// ERCC5 / RFU, ILF3 / Fold change vs veh, ILF3 / RFU 11762660_at / Fold change /veh 11762660_at / RFU VCAN (11757783_s_at) / Fold change /veh VCAN (11757783_s_at) / RFU DDX43 (11728927_at) / Fold change /veh DDX43 (11728927_at) / RFU KRT8 (11758188_x_at) / Fold change /veh KRT8 (11758188_x_at) / RFU NKD1 (11759106_at) / Fold change /veh NKD1 (11759106_at) / RFU SRD5A1 (11742802_a_at) / Fold change /veh SRD5A1 (11742802_a_at) / RFU TPSAB1 /// TPSB2 (11721975_s_at) / Fold change /veh TPSAB1 /// TPSB2 (11721975_s_at) / RFU GSTM3 (11746129_a_at) / Fold change /veh GSTM3 (11746129_a_at) / RFU IL23R (11737362_x_at) / Fold change /veh IL23R (11737362_x_at) / RFU TMEM51 (11727254_a_at) / Fold change /veh TMEM51 (11727254_a_at) / RFU PIWIL2 (11732686_x_at) / Fold change /veh PIWIL2 (11732686_x_at) / RFU ORM1 (11744905_x_at) / Fold change /veh ORM1 (11744905_x_at) / RFU CCDC152 (11743942_at) / Fold change /veh CCDC152 (11743942_at) / RFU ECM1 (11717891_a_at) / Fold change /veh ECM1 (11717891_a_at) / RFU IL23R (11748794_a_at) / Fold change /veh IL23R (11748794_a_at) / RFU TNFAIP8L3 (11732012_x_at) / Fold change /veh TNFAIP8L3 (11732012_x_at) / RFU MBOAT4 (11741988_at) / Fold change /veh MBOAT4 (11741988_at) / RFU 11764193_at / Fold change /veh 11764193_at / RFU TMEM53 (11763286_at) / Fold change /veh TMEM53 (11763286_at) / RFU MAGEB2 (11727129_at) / Fold change /veh MAGEB2 (11727129_at) / RFU TMEM200A (11744735_a_at) / Fold change /veh TMEM200A (11744735_a_at) / RFU CCDC152 (11751479_a_at) / Fold change /veh CCDC152 (11751479_a_at) / RFU FAM211A (11726209_a_at) / Fold change /veh FAM211A (11726209_a_at) / RFU RGS16 (11746705_a_at) / Fold change /veh RGS16 (11746705_a_at) / RFU VCAN (11755009_s_at) / Fold change /veh VCAN (11755009_s_at) / RFU RHOB (11743442_s_at) / Fold change /veh RHOB (11743442_s_at) / RFU RGS16 (11720943_a_at) / Fold change /veh RGS16 (11720943_a_at) / RFU RGS16 (11720944_at) / Fold change /veh RGS16 (11720944_at) / RFU, VPS4B / Fold change vs veh, VPS4B / RFU, CREB1 / Fold change vs veh, CREB1 / RFU, DNAJC13 / Fold change vs veh, DNAJC13 / RFU, GNAQ / Fold change vs veh, GNAQ / RFU, CDK5R1 / Fold change vs veh, CDK5R1 / RFU, ZRANB3 / Fold change vs veh, ZRANB3 / RFU, CUL4A / Fold change vs veh, CUL4A / RFU, CCNY / Fold change vs veh, CCNY / RFU, UFL1 / Fold change vs veh, UFL1 / RFU, COG3 / Fold change vs veh, COG3 / RFU, DIAPH2 / Fold change vs veh, DIAPH2 / RFU, SKA2 / Fold change vs veh, SKA2 / RFU, AFF3 / Fold change vs veh, AFF3 / RFU, LMF1 / Fold change vs veh, LMF1 / RFU, IPO11 / Fold change vs veh, IPO11 / RFU, DFFB / Fold change vs veh, DFFB / RFU, FOXP1 / Fold change vs veh, FOXP1 / RFU, CARD8 / Fold change vs veh, CARD8 / RFU, STRN3 / Fold change vs veh, STRN3 / RFU, ADK / Fold change vs veh, ADK / RFU, RASSF2 / Fold change vs veh, RASSF2 / RFU, WIPF1 / Fold change vs veh, WIPF1 / RFU, LARP1B / Fold change vs veh, LARP1B / RFU, RASA1 / Fold change vs veh, RASA1 / RFU, RB1 / Fold change vs veh, RB1 / RFU, PPFIA1 / Fold change vs veh, PPFIA1 / RFU, MAT2A / Fold change vs veh, MAT2A / RFU, CCT5 / Fold change vs veh, CCT5 / RFU, WDR92 / Fold change vs veh, WDR92 / RFU, CUX1 / Fold change vs veh, CUX1 / RFU, TTC7A / Fold change vs veh, TTC7A / RFU, TMEM135 / Fold change vs veh, TMEM135 / RFU, DEPTOR / Fold change vs veh, DEPTOR / RFU, CPM / Fold change vs veh, CPM / RFU, DNAJB6 / Fold change vs veh, DNAJB6 / RFU, CACNA2D3 / Fold change vs veh, CACNA2D3 / RFU, DTX4 / Fold change vs veh, DTX4 / RFU, TFCP2 / Fold change vs veh, TFCP2 / RFU, GMCL1 /// GMCL1P1 / Fold change vs veh, GMCL1 /// GMCL1P1 / RFU, AEBP2 / Fold change vs veh, AEBP2 / RFU, SNHG1 /// SNORD22 /// SNORD25 /// SNORD26 /// SNORD27 /// SNORD28 /// SNORD29 /// SNORD31 / Fold change vs veh, SNHG1 /// SNORD22 /// SNORD25 /// SNORD26 /// SNORD27 /// SNORD28 /// SNORD29 /// SNORD31 / Fold change (Aza/veh), C12orf56 (ProbeSet 11735607_a_at) / Fold change (ACY-1035/veh), C12orf56 (ProbeSet 11735607_a_at) / Fold change (Aza/veh), FGFR1OP (ProbeSet 11751329_s_at) / Fold change (ACY-1035/veh), FGFR1OP (ProbeSet 11751329_s_at) / Fold change (Aza/veh), VPS36 (ProbeSet 11739960_a_at) / Fold change (ACY-1035/veh), VPS36 (ProbeSet 11739960_a_at) / RFU SYPL1 (11715823_x_at) / Fold change /veh SYPL1 (11715823_x_at) / RFU IGFBP7 (11715501_s_at) / Fold change /veh IGFBP7 (11715501_s_at) / RFU REEP3 (11722064_at) / Fold change /veh REEP3 (11722064_at) / RFU IGLL1 (11728026_x_at) / Fold change /veh IGLL1 (11728026_x_at): dose or concentration left out as unconfirmed", "settings": "MV-4-11 cells, 48 hours"}
{"molecule": "Nc1ccc(-c2cccs2)cc1NC(=O)c1ccc2c(c1)cc(C1CC1)n2CCN1CCOCC1", "note": "[ACY-1035]", "values": [{"measurement": "RFU CDKN2B (11736163_a_at)", "value": 9.39, "unit": "RFU"}]}
